The record followed here is US7534809B2, “Phospho-indoles as HIV inhibitors” (priority 2004, dated 2009).

The target of experiment [1] is HIV reverse transcriptase WT (Human immunodeficiency virus type 1 group M subtype B, UniProt P03366). The experiment is described as follows: Enzyme assay, reverse transcriptase WT. Format: biochemical, HIV-1. From the text: (§1) As used herein, “reverse transcriptase” or “RT” refers to an enzyme having a non-nucleoside inhibitory binding site similar to that of HIV-1 RT, and to which ligands, which bind the composite binding pocket of the compounds of the present invention, also will bind. One measure of RT activity is viral replication. A measure of HIV-1 viral replication is the automated assay that utilizes MTT, as described earlier in this specification. Another measure is the p24 core antigen enzyme immunoassay, such as, for example, the assay commercially available from Coulter Corporation/Immunotech, Inc.® (Westbrook, Mich.). Another means for measuring RT activity is by assaying recombinant HIV-1 reverse transcriptase activity, such as, for example, by using the Quan-T-RT™ assay system commercially available from Amersham® (Arlington Heights, Ill.) and as described by Bosworth et al., Nature, 1989, 341:167-168.
(§2) The 3-phosphoindoles can be assessed for their ability to inhibit reverse transcriptase activity in vitro according to standard screening methods.

Experiment [2] deals with HIV reverse transcriptase Y181C (Human immunodeficiency virus type 1 group M subtype B, UniProt P03366, Y780C). The experiment is described as follows: Enzyme assay, reverse transcriptase Y181C. It counts as biochemical, HIV-1.
Text: as §1, §2

For experiment [3], the target named is HIV reverse transcriptase K103N (Human immunodeficiency virus type 1 group M subtype B, UniProt P03366, K702N). The experiment is described as follows: Enzyme assay, reverse transcriptase K103N. It counts as biochemical, HIV-1.
Text: as §1, §2

Experiment [4] has as its target HIV reverse transcriptase K103N/Y181C (Human immunodeficiency virus type 1 group M subtype B, UniProt P03366, K702N/Y780C). Description: Enzyme assay, reverse transcriptase K103N/Y181C. It counts as biochemical, HIV-1.
Text: as §1, §2

A further experiment has as its system HIV BH-10 WT. The experiment is described as follows: Cell-based assay using BH-10 cells, wild type. The conditions noted are these: Human immunodeficiency virus 1, read-out: EC50 WT///B, BH-10 cells, wild type.
For a further experiment, the system named is HIV mutant strain Y181C. Description: Cell-based assay using BH-10 cells, Y181C mutant. Conditions: Human immunodeficiency virus 1, read-out: EC50 Y181C, BH-10 cells, Y181C mutant.
Experiment [5] deals with HIV mutant strain K103N/Y181C. The experiment is described as follows: Cell-based assay using BH-10 cells, K103N/Y181C mutant. The conditions noted are these: Human immunodeficiency virus 1, read-out: EC50 K103N/Y181C, BH-10 cells, K103N/Y181C mutant.

Where only a bound is given, the exact number is not on record here.

Broadly, the IC50 is the point on the concentration scale where inhibition reaches its midpoint. For the molecule `COP(=O)(c1ccccc1)c1c(C(N)=O)[nH]c2ccccc12` (stereo not shown) [Compound 7ai], the concentration for half-maximal inhibition (IC50) in experiment [1] is 0.393 µM; in experiment [2] it was 5.61 µM; in experiment [3], 6.59 µM; in experiment [4], > 5 µM. The EC50 with HIV BH-10 WT worked out at 0.001 µM; in the experiment with HIV mutant strain Y181C, 1.11 µM; in experiment [5], 0.706 µM.
As for `CCOP(=O)(c1cc(C)cc(C)c1)c1c(C(=O)NCc2ccncc2)[nH]c2ccc(Cl)cc12` (stereo not shown) [Compound 9a], the IC50 was 3.41 µM in experiment [1], 4.49 µM in experiment [2], 3.36 µM in experiment [3] and > 5 µM in experiment [4]. For the same molecule, the EC50 with HIV BH-10 WT turned out to be 0.011 µM; with HIV mutant strain Y181C, 0.0577 µM; in experiment [5], 0.008 µM.
As to `COP(=O)(c1ccccc1)c1c(C(=O)NCc2ccncc2)[nH]c2ccc(Cl)cc12` (stereo not shown) [Compound 18ar], the IC50 was determined as 0.156 µM in experiment [1], 0.489 µM in experiment [2], 0.93 µM in experiment [3] and 1.66 µM in experiment [4]. For the same molecule, the EC50 with HIV BH-10 WT turned out to be 0.001 µM; in the experiment with HIV mutant strain Y181C, 0.0056 µM; in experiment [5], 0.0039 µM.
Consider `NC(=O)c1[nH]c2ccc(Cl)cc2c1P(=O)(c1ccccc1)c1ccccc1` [Compound 27a], for which the half-maximal inhibitory concentration (IC50) in experiment [1], in experiment [2], in experiment [3] and in experiment [4] was > 5 µM throughout. Moreover, the EC50 (in the experiment on HIV BH-10 WT; with HIV mutant strain Y181C; in experiment [5]) was > 1.25 µM in each case.
With `CP(=O)(c1ccccc1)c1c(C(N)=O)[nH]c2ccc(Cl)cc12` (stereo not shown) [Compound 29a], the concentration for half-maximal inhibition (IC50) in experiment [1] is 0.233 µM; in experiment [2], 2.52 µM; in experiment [3], > 5 µM; in experiment [4] it was > 5 µM. In addition, the EC50 was 0.0008 µM in the experiment on HIV BH-10 WT, 0.266 µM in the experiment on HIV mutant strain Y181C and 1.38 µM in experiment [5].
For the molecule `CN(C)P(=O)(c1ccccc1)c1c(C(N)=O)[nH]c2ccc(Cl)cc12` (stereo not shown) [Compound 31a], the IC50 in experiment [1] was 1.4 µM; in experiment [2], > 5 µM; in experiment [3], > 5 µM; in experiment [4], > 5 µM. Moreover, the results for the EC50 (in the experiment on HIV BH-10 WT; in the experiment on HIV mutant strain Y181C; in experiment [5]) were 0.0139 µM, 0.467 µM and > 1.25 µM, respectively.
`NC(=O)c1[nH]c2ccc(Cl)cc2c1P(=O)(O)c1ccccc1` [Compound 60a]: the half-inhibitory concentration (IC50) in experiment [1], in experiment [2], in experiment [3] and in experiment [4] was > 5 µM throughout. Also, the EC50 (with HIV BH-10 WT; in the experiment on HIV mutant strain Y181C; in experiment [5]) was > 1.25 µM throughout.
